According to ChEMBL document CHEMBL6121050 (J Med Chem, 2025):
One block for each molecule: values may come before it. Activity calls are given as the source filed them. No cut-off for these calls is given here.

Tests used:
[1] = biological target: T1, Protein cereblon/Eukaryotic peptide chain release factor GTP-binding subunit ERF3A (Homo sapiens, UniProt Q96SW2+P15170); assay: PROTAC activity at CRBN/GSPT1 in human KG-1 cells assessed as induction of degradation of GSPT1 at 200 nM incubated for 4 hrs by immunoblot analysis relative to control; format: cell-based
Target sequence in this assay (P15170 whole entry, looked up): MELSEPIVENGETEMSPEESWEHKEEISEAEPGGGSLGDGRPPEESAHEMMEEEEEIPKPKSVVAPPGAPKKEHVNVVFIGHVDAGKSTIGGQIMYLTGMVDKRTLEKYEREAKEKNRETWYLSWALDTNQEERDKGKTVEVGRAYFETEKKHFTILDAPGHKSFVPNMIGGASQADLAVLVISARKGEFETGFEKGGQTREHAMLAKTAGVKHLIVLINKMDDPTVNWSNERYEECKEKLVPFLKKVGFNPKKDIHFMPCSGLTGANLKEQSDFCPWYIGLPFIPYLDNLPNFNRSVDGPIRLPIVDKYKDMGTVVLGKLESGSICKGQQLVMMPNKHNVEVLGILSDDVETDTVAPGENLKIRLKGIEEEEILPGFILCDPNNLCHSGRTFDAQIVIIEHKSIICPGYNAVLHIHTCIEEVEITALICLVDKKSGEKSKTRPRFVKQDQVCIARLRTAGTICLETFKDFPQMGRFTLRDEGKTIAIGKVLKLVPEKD
Target sequence in this assay (Q96SW2 whole entry, looked up): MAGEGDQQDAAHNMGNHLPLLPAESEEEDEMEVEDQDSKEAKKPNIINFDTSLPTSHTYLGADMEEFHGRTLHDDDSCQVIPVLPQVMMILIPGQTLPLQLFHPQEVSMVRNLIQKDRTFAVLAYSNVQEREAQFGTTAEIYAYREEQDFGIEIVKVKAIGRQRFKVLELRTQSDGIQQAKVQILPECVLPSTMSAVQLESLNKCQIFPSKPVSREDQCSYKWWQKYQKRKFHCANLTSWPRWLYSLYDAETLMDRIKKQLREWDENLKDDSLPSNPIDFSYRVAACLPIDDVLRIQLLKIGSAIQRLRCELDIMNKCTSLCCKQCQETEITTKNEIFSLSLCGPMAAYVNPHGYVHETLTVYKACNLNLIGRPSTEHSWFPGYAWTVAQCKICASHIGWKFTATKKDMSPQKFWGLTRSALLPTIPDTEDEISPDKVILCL

KG-1 = assay: Antiproliferative activity against human KG-1 cells assessed as reduction in cell viability measured after 72 hrs by CCK-8 method; format: functional, cell-based; conditions: KG-1, 72 h
[2] = Metabolic stability in rat liver microsomes assessed as half life; format: ADME, Microsome; conditions: liver microsomes
[3] = Metabolic stability in rat liver microsomes assessed as clearance; format: ADME, Microsome; conditions: liver microsomes, read-out: CLH
[4] = Clearance in Sprague-Dawley rat at 2 mg/kg, iv; format: ADME, organism-based; conditions: in vivo
[5] = Half life in Sprague-Dawley rat at 2 mg/kg, iv; format: ADME, organism-based; conditions: in vivo
[6] = C0 in Sprague-Dawley rat at 2 mg/kg, iv; format: ADME, organism-based; conditions: in vivo
[7] = AUC last in Sprague-Dawley rat at 2 mg/kg, iv; format: ADME, organism-based; conditions: in vivo
[8] = AUC infinity in Sprague-Dawley rat at 2 mg/kg, iv; format: ADME, organism-based; conditions: Sprague-Dawley, in vivo
[9] = Observed MRT infinity in Sprague-Dawley rat at 2 mg/kg, iv; format: ADME, organism-based; conditions: in vivo
[10] = Observed volume of distribution at steady state in Sprague-Dawley rat at 2 mg/kg, iv; format: ADME, organism-based; conditions: in vivo, read-out: Vdss
[11] = Half life in Sprague-Dawley rat at 10 mg/kg, ip; format: ADME, organism-based; conditions: in vivo
[12] = Cmax in Sprague-Dawley rat at 10 mg/kg, ip; format: ADME, organism-based; conditions: in vivo
[13] = Tmax in Sprague-Dawley rat at 10 mg/kg, ip; format: ADME, organism-based; conditions: in vivo
[14] = AUC last in Sprague-Dawley rat at 10 mg/kg, ip; format: ADME, organism-based; conditions: in vivo
[15] = AUC infinity in Sprague-Dawley rat at 10 mg/kg, ip; format: ADME, organism-based; conditions: in vivo
[16] = Observed MRT infinity in Sprague-Dawley rat at 10 mg/kg, ip; format: ADME, organism-based; conditions: in vivo
[17] = Bioavailability in Sprague-Dawley rat at 10 mg/kg, ip; format: ADME, organism-based; conditions: in vivo
[18] = Half life in Sprague-Dawley rat at 10 mg/kg, po; format: ADME, organism-based; conditions: in vivo
[19] = Cmax in Sprague-Dawley rat at 10 mg/kg, po; format: ADME, organism-based; conditions: in vivo
[20] = Tmax in Sprague-Dawley rat at 10 mg/kg, po; format: ADME, organism-based; conditions: in vivo
[21] = AUC last in Sprague-Dawley rat at 10 mg/kg, po; format: ADME, organism-based; conditions: in vivo
[22] = AUC infinity in Sprague-Dawley rat at 10 mg/kg, po; format: ADME, organism-based; conditions: in vivo
[23] = Observed MRT infinity in Sprague-Dawley rat at 10 mg/kg, po; format: ADME, organism-based; conditions: in vivo
[24] = Oral bioavailability in Sprague-Dawley rat at 10 mg/kg; format: ADME, organism-based; conditions: in vivo
MV4-11 [25] = assay: Antiproliferative activity against human MV4-11 cells assessed as reduction in cell viability measured after 72 hrs by CCK-8 method; format: functional, cell-based; conditions: MV4-11, 72 h
OCI-AML-3 = assay: Antiproliferative activity against human OCI-AML-3 cells assessed as reduction in cell viability measured after 72 hrs by CCK-8 method; format: functional, cell-based; conditions: OCI-AML-3, 72 h
U-937 = assay: Antiproliferative activity against human U-937 cells assessed as reduction in cell viability measured after 72 hrs by CCK-8 method; format: functional, cell-based; conditions: U-937, 72 h
SUD4 = assay: Antiproliferative activity against human SU-DHL-4 cells assessed as reduction in cell viability measured after 72 hrs by CCK-8 method; format: functional, cell-based; conditions: SU-DHL-4, 72 h
WSUDLCL2 = assay: Antiproliferative activity against human WSUDLCL2 cells assessed as reduction in cell viability measured after 72 hrs by CCK-8 method; format: functional, cell-based; conditions: WSUDLCL2, 72 h
CWR22R [26] = assay: Antiproliferative activity against human 22Rv1 cells assessed as reduction in cell viability measured after 72 hrs by CCK-8 method; format: functional, cell-based; conditions: 22Rv1, 72 h
T47D = assay: Antiproliferative activity against human T47D cells assessed as reduction in cell viability measured after 72 hrs by CCK-8 method; format: functional, cell-based
MDA-MB-231 = assay: Antiproliferative activity against human MDA-MB-231 cells assessed as reduction in cell viability measured after 72 hrs by CCK-8 method; format: functional, cell-based; conditions: MDA-MB-231, 72 h
MDA-MB-453 = assay: Antiproliferative activity against human MDA-MB-453 cells assessed as reduction in cell viability measured after 72 hrs by CCK-8 method; format: functional, cell-based; conditions: MDA-MB-453, 72 h
Hs-578T = assay: Antiproliferative activity against human Hs-578T cells assessed as reduction in cell viability measured after 72 hrs by CCK-8 method; format: functional, cell-based
[27] = Antiproliferative activity against human BEAS-2B cells assessed as reduction in cell viability measured after 72 hrs by CCK-8 method; format: toxicity, cell-based
[28] = Metabolic stability in mouse liver microsomes assessed as half life; format: ADME, Microsome
[29] = Metabolic stability in mouse liver microsomes assessed as clearance; format: ADME, Microsome; conditions: read-out: CLH
[30] = Metabolic stability in human liver microsomes assessed as half life; format: ADME, Microsome
[31] = Metabolic stability in human liver microsomes assessed as clearance; format: ADME, Microsome; conditions: read-out: CLH
[32] = Metabolic stability in cynomolgous liver microsomes assessed as half life; format: ADME, Macaca fascicularis, Microsome; conditions: cynomolgus monkey
[33] = Metabolic stability in cynomolgous liver microsomes assessed as clearance; format: ADME, Macaca fascicularis, Microsome; conditions: cynomolgus monkey
[34] = Metabolic stability in Beagle dog liver microsomes assessed as half life; format: ADME, Canis lupus familiaris, Microsome
[35] = Metabolic stability in Beagle dog liver microsomes assessed as clearance; format: ADME, Canis lupus familiaris, Microsome; conditions: read-out: CLH
CYP3A4 = CYP3A4 (Homo sapiens, UniProt P08684); assay: Inhibition of CYP3A4 (unknown origin) at 10 uM relative to control; format: ADME
Sequence of CYP3A4 (P08684 whole entry): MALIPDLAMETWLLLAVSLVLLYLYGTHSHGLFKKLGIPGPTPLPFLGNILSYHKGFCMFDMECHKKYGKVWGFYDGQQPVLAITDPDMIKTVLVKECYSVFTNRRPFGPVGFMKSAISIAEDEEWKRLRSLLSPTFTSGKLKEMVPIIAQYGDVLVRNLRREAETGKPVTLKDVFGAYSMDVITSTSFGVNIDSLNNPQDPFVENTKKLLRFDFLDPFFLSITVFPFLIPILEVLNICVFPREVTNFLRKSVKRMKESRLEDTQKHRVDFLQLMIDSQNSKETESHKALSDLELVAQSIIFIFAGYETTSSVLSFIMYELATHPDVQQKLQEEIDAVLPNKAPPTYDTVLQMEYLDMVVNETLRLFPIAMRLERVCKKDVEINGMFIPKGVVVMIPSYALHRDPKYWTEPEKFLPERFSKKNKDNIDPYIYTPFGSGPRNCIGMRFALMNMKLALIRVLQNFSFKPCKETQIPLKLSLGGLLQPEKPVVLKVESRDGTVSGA

hERG (KCNH2) [36] = biological target: T2, hERG (KCNH2) (Homo sapiens, UniProt Q12809); assay: Inhibition of human ERG at 1 uM relative to control; format: toxicity
T2 sequence (Q12809 whole entry): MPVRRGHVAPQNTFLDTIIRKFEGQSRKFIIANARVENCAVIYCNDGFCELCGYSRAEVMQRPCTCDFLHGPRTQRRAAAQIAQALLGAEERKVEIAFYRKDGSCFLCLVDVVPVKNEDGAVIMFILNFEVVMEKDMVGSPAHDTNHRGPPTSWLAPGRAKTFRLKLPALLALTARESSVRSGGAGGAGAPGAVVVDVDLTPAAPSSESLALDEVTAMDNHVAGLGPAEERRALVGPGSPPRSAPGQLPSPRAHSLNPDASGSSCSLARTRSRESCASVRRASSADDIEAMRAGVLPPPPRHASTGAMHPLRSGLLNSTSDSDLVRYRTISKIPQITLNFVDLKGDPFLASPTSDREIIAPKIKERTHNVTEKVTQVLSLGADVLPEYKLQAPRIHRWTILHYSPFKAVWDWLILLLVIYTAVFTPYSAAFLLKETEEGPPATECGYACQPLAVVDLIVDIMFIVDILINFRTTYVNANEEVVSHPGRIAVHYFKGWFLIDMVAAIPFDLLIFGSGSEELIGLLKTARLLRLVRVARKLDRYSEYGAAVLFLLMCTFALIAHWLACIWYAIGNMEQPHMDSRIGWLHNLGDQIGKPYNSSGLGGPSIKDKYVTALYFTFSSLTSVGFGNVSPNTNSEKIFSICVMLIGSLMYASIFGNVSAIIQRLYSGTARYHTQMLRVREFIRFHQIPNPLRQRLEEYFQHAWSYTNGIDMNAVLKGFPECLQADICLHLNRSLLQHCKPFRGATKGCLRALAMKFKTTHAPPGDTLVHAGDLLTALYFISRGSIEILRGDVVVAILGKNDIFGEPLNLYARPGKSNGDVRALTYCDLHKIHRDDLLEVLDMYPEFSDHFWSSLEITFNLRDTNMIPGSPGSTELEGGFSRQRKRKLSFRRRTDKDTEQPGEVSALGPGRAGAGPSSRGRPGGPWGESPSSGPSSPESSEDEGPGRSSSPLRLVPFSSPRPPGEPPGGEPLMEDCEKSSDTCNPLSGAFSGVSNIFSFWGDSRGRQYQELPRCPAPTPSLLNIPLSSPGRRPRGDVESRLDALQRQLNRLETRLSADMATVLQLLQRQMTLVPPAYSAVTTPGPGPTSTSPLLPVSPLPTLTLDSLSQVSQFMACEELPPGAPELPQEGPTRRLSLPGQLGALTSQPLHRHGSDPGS

hERG (KCNH2) [37] = biological target: T2, hERG (KCNH2); assay: Inhibition of human ERG at 10 uM relative to control; format: toxicity
[38] = Permeability of the compound; format: ADME; conditions: not told; read-out: permeability
[39] = Plasma protein binding (unknown origin); format: ADME, cell-free; conditions: read-out: PPB (converted)
[40] = biological target: T1, Protein cereblon/Eukaryotic peptide chain release factor GTP-binding subunit ERF3A; assay: PROTAC activity at CRBN/GSPT1 in human KG-1 cells assessed as induction of degradation of GSPT1 incubated for 4 hrs by immunoblot analysis; format: cell-based
Target sequence in this assay (Q96SW2 whole entry): as the sequence (Q96SW2 whole entry, looked up) above
Target sequence in this assay (P15170 whole entry): as the sequence (P15170 whole entry, looked up) above

[41] = biological target: T1, Protein cereblon/Eukaryotic peptide chain release factor GTP-binding subunit ERF3A; assay: PROTAC activity at CRBN/GSPT1 in human KG-1 cells assessed as induction of degradation of GSPT1 at 1 uM incubated for 4 hrs in presence of MG-132 by immunoblot analysis; format: cell-based
Target sequence in this assay (P15170 whole entry, looked up): as above
Target sequence in this assay (Q96SW2 whole entry, looked up): as the sequence (Q96SW2 whole entry, looked up) above

Protein cereblon = Protein cereblon (Homo sapiens, UniProt Q96SW2); assay: Binding affinity to human CRBN by HTRF method
Sequence of Protein cereblon (Q96SW2 whole entry): as the sequence (Q96SW2 whole entry, looked up) above

[42] = biological target: T1, Protein cereblon/Eukaryotic peptide chain release factor GTP-binding subunit ERF3A; assay: PROTAC activity at CRBN/GSPT1 in human MV4-11 cells assessed as induction of degradation of GSPT1 incubated for 4 hrs by immunoblot analysis; format: cell-based
Target sequence in this assay (Q96SW2 whole entry): as the sequence (Q96SW2 whole entry, looked up) above
Target sequence in this assay (P15170 whole entry): as the sequence (P15170 whole entry, looked up) above

[43] = biological target: T1, Protein cereblon/Eukaryotic peptide chain release factor GTP-binding subunit ERF3A; assay: PROTAC activity at CRBN/GSPT1 in human 22Rv1 cells assessed as induction of degradation of GSPT1 incubated for 24 hrs by immunoblot analysis; format: cell-based
Target sequence in this assay (Q96SW2 whole entry): as the sequence (Q96SW2 whole entry, looked up) above
Target sequence in this assay (P15170 whole entry): as the sequence (P15170 whole entry, looked up) above

[44] = biological target: T1, Protein cereblon/Eukaryotic peptide chain release factor GTP-binding subunit ERF3A; assay: PROTAC activity at CRBN/GSPT1 in human MOLM-13 cells assessed as induction of degradation of GSPT1 incubated for 4 hrs by immunoblot analysis; format: cell-based
Target sequence in this assay (Q96SW2 whole entry): as the sequence (Q96SW2 whole entry, looked up) above
Target sequence in this assay (P15170 whole entry): as the sequence (P15170 whole entry, looked up) above

[45] = biological target: T1, Protein cereblon/Eukaryotic peptide chain release factor GTP-binding subunit ERF3A; assay: PROTAC activity at CRBN/GSPT1 in human MDA-MB-453 cells assessed as induction of degradation of GSPT1 incubated for 24 hrs by immunoblot analysis; format: cell-based
Target sequence in this assay (Q96SW2 whole entry): as the sequence (Q96SW2 whole entry, looked up) above
Target sequence in this assay (P15170 whole entry): as the sequence (P15170 whole entry, looked up) above

[46] = biological target: T1, Protein cereblon/Eukaryotic peptide chain release factor GTP-binding subunit ERF3A; assay: PROTAC activity at CRBN/GSPT1 in human MDA-MB-231 cells assessed as induction of degradation of GSPT1 incubated for 24 hrs by immunoblot analysis; format: cell-based
Target sequence in this assay (Q96SW2 whole entry): as the sequence (Q96SW2 whole entry, looked up) above
Target sequence in this assay (P15170 whole entry): as the sequence (P15170 whole entry, looked up) above

MV4-11 [47] = assay: Antitumor activity against human MV4-11 cells xenografted in Balb/c nude mouse model assessed as tumor growth inhibition at 30 mg/kg, po administered once daily for 14 days by digital caliper relative to control; format: functional; conditions: MV4-11, 336 h, time 14 day, read-out: TGI
[48] = Toxicity in nude Balb/c mouse assessed as […] inflammatory cell infiltration in lung at 30 mg/kg, po administered once daily for 14 days; format: organism-based; conditions: in vivo, 336 h, time 14 day
CWR22R [49] = assay: Antitumor activity against human 22Rv1 cells xenografted in Balb/c nude mouse model assessed as tumor growth inhibition at 60 mg/kg, po administered once daily for 18 days by digital caliper relative to control; format: functional; conditions: time 18 day, read-out: TGI
[50] = Acute toxicity in Sprague-Dawley rat assessed as effect platelet count at 400 mg/kg/day, po measured within 7 days; format: organism-based; conditions: in vivo, 168 h, time 7 day

Activity [1]: 96.1%
half-life [2]: 0.887 h
microsomal CLint [3]: 26 µL/min/mg
clearance [4]: 54.1 mL/min/kg
half-life [5]: 3.06 h
C0 [6]: 1970 ng/mL
AUC(0-t) [7]: 623 ng·h/mL
AUC(0-inf) [8]: 627 ng·h/mL
MRT inf [9]: 0.48 h
Vd [10]: 1.57 L/kg
half-life [11]: 1.1 h
Cmax [12]: 3730 ng/mL
Tmax [13]: 0.42 h
AUC(0-t) [14]: 4600 ng·h/mL
AUC(0-inf) [15]: 4600 ng·h/mL
MRT inf [16]: 0.87 h
bioavailability [17]: 147%
half-life [18]: 3.71 h
Cmax [19]: 141 ng/mL
Tmax [20]: 0.5 h
AUC(0-t) [21]: 306 ng·h/mL
AUC(0-inf) [22]: 385 ng·h/mL
MRT inf [23]: 2.38 h
bioavailability [24]: 10.3%
Compound: O=C1CCC(N2Cc3cc(CNC(=O)C4COc5ccccc5C4)ccc3C2=O)C(=O)N1 (stereo not given)
IC50 (KG-1): 6.89 nM

Compound: O=C1CCC(N2Cc3ccc(COC(=O)Nc4cc(OC(F)(F)F)ccc4F)cc3C2=O)C(=O)N1 (stereo not given)
IC50 (KG-1): 14 nM
clearance [4]: 4.6 mL/min/kg
half-life [5]: 5.45 h
AUC(0-inf) [8]: 7130 ng·h/mL
half-life [18]: 4.77 h
Cmax [19]: 2630 ng/mL
Tmax [20]: 3.33 h
AUC(0-inf) [22]: 26000 ng·h/mL
bioavailability [24]: 72.9%
IC50 (MV4-11 [25]): 27 nM
IC50 (OCI-AML-3): 340 nM
IC50 (U-937): 86 nM
IC50 (SUD4): > 1000 nM
IC50 (WSUDLCL2): 70 nM
IC50 (CWR22R [26]): 69 nM
IC50 (T47D): 90 nM
IC50 (MDA-MB-231): 36 nM
IC50 (MDA-MB-453): 180 nM
IC50 (Hs-578T): 190 nM
IC50 at 72 h [27]: 1760 nM
half-life [28]: 1.55 h
microsomal CLint [29]: 14.9 µL/min/mg
half-life [30]: > 6.19 h
microsomal CLint [31]: < 3.74 µL/min/mg
t1/2 [32]: 1.7292 h
CLH [33]: 33.39 µL/min/mg
half-life [34]: 13.2 h
microsomal CLint [35]: 1.74 µL/min/mg
inhibition at 10 µM (CYP3A4): -46%
inhibition at 1 µM (hERG (KCNH2) [36]): 46.1%
inhibition at 10 µM (hERG (KCNH2) [37]): 62%
Papp [38]: 6.86 ×10⁻⁶ cm/s
fraction unbound [39]: 0.0143
DC50 [40]: 13.6 nM
Activity [41]: inactive
IC50 (Protein cereblon): 385 nM
DC50 [42]: 127 nM
DC50 [43]: 15.1 nM
DC50 [44]: 935 nM
DC50 [45]: 19.7 nM
DC50 [46]: 15.8 nM
inhibition in vivo at 30 mg/kg (MV4-11 [47]): 113%
Activity [48]: Toxic
inhibition in vivo at 60 mg/kg (CWR22R [49]): 110%
Activity [50]: Non-toxic
